pIC50, pKd: −log10 of the molar value. Where “and” joins values, the source holds several entries; their conditions need not be identical. Equal entries are not always repeated.
Columns and labels:
[1] = biological target: T1, GST-YTHDF2 (Homo sapiens, UniProt Q9Y5A9); assay: HTRF-based binding assay, competition with m6A-oligoRNA, DF2; conditions: for pIC50: dose-response, competitor m6A-oligoRNA, read-out: DF2 IC50 (HTRF assay); for LE (ligand efficiency, DF2): LE = -RT ln IC50/HAC from HTRF IC50; for Residual signal at 1 mM concentration: 1 mM compound, relative to control, average of two technical replicates, * = interference with the assay
T1 construct: made in house
T1 sequence (Q9Y5A9 1-579): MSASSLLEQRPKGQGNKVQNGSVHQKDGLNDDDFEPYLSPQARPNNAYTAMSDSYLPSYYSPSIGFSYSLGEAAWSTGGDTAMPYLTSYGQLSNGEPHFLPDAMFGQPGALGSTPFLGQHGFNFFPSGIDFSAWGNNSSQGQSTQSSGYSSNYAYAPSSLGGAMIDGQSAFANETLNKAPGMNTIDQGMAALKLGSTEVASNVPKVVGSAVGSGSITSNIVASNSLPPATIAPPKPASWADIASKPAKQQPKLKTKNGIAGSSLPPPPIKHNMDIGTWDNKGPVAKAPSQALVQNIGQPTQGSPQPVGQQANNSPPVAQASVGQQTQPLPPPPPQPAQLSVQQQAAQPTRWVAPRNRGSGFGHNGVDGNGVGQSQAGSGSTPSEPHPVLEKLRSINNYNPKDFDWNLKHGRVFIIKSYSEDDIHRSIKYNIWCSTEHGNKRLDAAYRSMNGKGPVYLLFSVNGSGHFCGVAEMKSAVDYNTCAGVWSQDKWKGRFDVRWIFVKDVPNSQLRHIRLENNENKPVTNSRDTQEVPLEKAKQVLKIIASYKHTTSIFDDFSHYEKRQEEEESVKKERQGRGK

[2] = biological target: T2, GST-YTHDF1 (Homo sapiens, UniProt Q9BYJ9); assay: HTRF-based binding assay, DF1; conditions: HTRF, 100 µM compound, normalized
T2 construct: made in house
T2 sequence (Q9BYJ9 1-559): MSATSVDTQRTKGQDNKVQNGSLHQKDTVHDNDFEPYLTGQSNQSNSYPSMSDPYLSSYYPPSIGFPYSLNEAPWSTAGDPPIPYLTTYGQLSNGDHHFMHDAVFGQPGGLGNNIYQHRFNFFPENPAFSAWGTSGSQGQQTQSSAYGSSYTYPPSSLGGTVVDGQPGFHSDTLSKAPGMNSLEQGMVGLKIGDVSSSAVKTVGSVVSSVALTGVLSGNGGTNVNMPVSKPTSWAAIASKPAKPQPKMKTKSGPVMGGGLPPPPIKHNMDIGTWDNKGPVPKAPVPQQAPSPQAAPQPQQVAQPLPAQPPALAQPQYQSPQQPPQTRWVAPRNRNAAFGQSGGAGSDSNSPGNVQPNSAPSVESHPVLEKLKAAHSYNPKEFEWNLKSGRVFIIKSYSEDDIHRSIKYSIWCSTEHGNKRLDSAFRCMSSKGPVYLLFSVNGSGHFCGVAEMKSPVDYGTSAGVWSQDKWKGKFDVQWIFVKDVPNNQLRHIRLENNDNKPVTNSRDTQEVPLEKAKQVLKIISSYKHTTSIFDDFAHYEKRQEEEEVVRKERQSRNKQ
Protocol: (§1) The HTRF-based assay was employed to evaluate the selectivity of the series against other DF proteins.
(§2) A dose–response experiment on DF1 and DF3 was conducted for compounds 17, 18, 23, and 27 (Figure S5). Compounds 17, 18, and 27 are active on three DF proteins. […] In contrast, compound 23 is selective for DF2, with residual signals (at the highest employed concentration of 62.5 μM) of 51 and 87% for DF1 and DF3, respectively.
(§3) GST-YTHDC1, GST-YTHDF1, GST-YTHDF2, and GST-YTHDF3 were purified as previously reported. The HTRF assay was assembled as detailed in ref with the only difference being that the starting concentration of the dose–response experiments used for the IC50 determination was variated dependently from the tested compound. The same protocol was applied to the four proteins. The competitive inhibition data of GST-YTHDF1 (single dose experiment at 100 μM compound concentration and dose–response curves), GST-YTHDF3 (single dose experiment at 100 μM compound concentration and dose–response curves), and GST-YTHDF2 (single dose experiment at 100 μM compound concentration) were normalized as described in ref to mitigate interference. The signal was measured as described in ref .

[3] = biological target: T3, GST-YTHDF3 (Homo sapiens, UniProt Q7Z739); assay: HTRF-based binding assay, DF3; conditions: HTRF, 100 µM compound, normalized
T3 construct: made in house
T3 sequence (Q7Z739 1-585): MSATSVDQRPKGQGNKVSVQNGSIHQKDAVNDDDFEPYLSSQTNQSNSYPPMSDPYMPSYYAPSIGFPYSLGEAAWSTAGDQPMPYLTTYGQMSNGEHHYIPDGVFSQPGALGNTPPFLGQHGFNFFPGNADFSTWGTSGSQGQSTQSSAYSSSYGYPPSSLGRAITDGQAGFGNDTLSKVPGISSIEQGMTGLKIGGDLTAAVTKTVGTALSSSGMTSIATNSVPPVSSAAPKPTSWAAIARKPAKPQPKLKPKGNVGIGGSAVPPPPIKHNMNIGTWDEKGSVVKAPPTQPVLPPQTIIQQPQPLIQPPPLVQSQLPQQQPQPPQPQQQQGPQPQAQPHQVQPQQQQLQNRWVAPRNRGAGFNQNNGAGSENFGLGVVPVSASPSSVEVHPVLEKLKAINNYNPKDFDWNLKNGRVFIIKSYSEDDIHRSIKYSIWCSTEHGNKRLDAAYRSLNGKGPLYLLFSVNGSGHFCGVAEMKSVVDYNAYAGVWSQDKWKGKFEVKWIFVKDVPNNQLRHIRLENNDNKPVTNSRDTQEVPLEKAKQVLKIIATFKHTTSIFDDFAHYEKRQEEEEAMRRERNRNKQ
Protocol: as §1, §2, §3

[4] = biological target: T4, YTHDC2 (Homo sapiens, UniProt Q9H6S0); assay: DNA-fluorescence polarization (FP) competition assay, DC2; assay type: binding; conditions: for pKd: Cheng-Prusoff from FP IC50, probe Kd 7 nM, two biological replicates
T4 construct: YTH domain of YTHDC2 (residues 1285–1424, cloned into the pGEX-6P-1 vector); made in house; host or cells: Rosetta (DE3) cells (E. coli)
T4 sequence (Q9H6S0 1285-1424): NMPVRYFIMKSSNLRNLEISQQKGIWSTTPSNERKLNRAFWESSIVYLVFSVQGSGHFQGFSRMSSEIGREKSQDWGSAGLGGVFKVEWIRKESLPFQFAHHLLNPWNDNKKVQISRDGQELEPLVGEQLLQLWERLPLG
Protocol: (§4) The binding affinity for DC1 could not be evaluated by HTRF because of interference of the compounds with the assay, which has a smaller assay window when performed with DC1 compared to the DF proteins. Thus, the FP assay was used to evaluate binding to DC1 and DC2.
The N-terminally GST-tagged YTH domain of YTHDC2 (residues 1285–1424, cloned into the pGEX-6P-1 vector) was overexpressed in Rosetta (DE3) cells grown overnight at 20 °C following induction with 0.4 mM isopropyl-β-D-thiogalactopyranoside (IPTG) at an OD600 of 0.8. The cells were harvested and resuspended in a lysis buffer containing 100 mM Tris–HCl (pH 8.0) and 500 mM NaCl. After cell lysis, the lysate was clarified by centrifugation at 48,000g for 1 h, and the soluble proteins were loaded onto a column packed with Glutathione Sepharose 4B (GE Healthcare), then eluted with 20 mM reduced glutathione in lysis buffer. Finally, a size-exclusion chromatography step (HiLoad 16/600 Superdex 200 pg column, GE Healthcare) was performed to further purify the protein in 20 mM Tris–HCl (pH 7.4) and 150 mM NaCl.
(§5) For fluorescence polarization (FP) experiments, a 5′-fluorescein-labeled m^6A-DNA probe (5′-FAM-[…](m6A)-CTAAGCT-3′) was synthesized by Microsynth AG.
(§6) The final concentration of the fluorescein-labeled DNA was kept constant at 3 nM. For YTHDC2 measurements, the protein concentration was set to 25 nM, while for YTHDF2 measurements, it was set to 10 nM, and for YTHDC1, it was set at 15 nM. The compound concentration was serially diluted to obtain the dose–response curve. The competition experiments were conducted in a final volume of 20 μL in a buffer containing 20 mM Tris–HCl (pH 7.4), 150 mM NaCl, and 0.01% bovine serum albumin (BSA), using a 384-well black flat-bottomed microplate (Corning 3575).
(§7) After incubating the mixture for 1 h, the anisotropy values were measured using a Tecan SPARK plate reader with 485/20 nm excitation and 535/25 nm emission polarization filters, suitable for fluorescein, at 25 °C. To obtain the equilibrium dissociation constant (K d), the IC50 values were first derived by fitting a dose–response curve to the data using nonlinear regression analysis in GraphPad Prism. These IC50 values were then converted to K d by using the Cheng–Prusoff equation: Kd=IC50/1+[L]/Kdprobe
(§8) IC50 is the observed value from FP assay, [L] is the probe concentration used, and K d ^probe is the binding affinity of probe for the target.

[5] = biological target: T5, YTHDF2 (Homo sapiens, UniProt Q9Y5A9); assay: DNA-fluorescence polarization (FP) competition assay, DF2; assay type: binding
T5 sequence (Q9Y5A9 1-579): T1 sequence (Q9Y5A9 1-579)
Protocol: An FP competition assay was used to further validate the binding of the compounds to DF2. The main difference with respect to a previously published FP assay is the use of an oligo-DNA as competitor ligand (see Materials and Methods section). […] These differences might originate from the varying conditions in the two assays, such as the competitor mRNA (5′-biotin-[…](m6A)-CUAAGCU-3′) in HTRF and DNA (5′-FAM-[…](m6A)-CTAAGCT-3′) in FP, the salt concentration (150 mM NaCl and 100 mM KF in HTRF, and 150 mM NaCl in FP), and the pH (7.5 in HTRF and 7.4 in FP). The FP-based assay was also employed to assess the selectivity against DC1 and DC2 (see Selectivity section).
as §5, §6, §7, §8

[6] = biological target: YTHDC1 (Homo sapiens, UniProt Q96MU7); assay: DNA-fluorescence polarization (FP) competition assay, DC1; assay type: binding
Protocol: as §4, §5, §6, §7, §8

Row | pIC50 [1] | pKd [4] | pKd [5] | pKd [6] | % at 100 µM ([1]; HTRF, 100 µM compound) [%] | Residual signal at 1 mM concentration ([1]; HTRF) [%] | SMILES | further results
1 | 4.57 | < 3.00 |  |  |  |  | Cc1c(C(C)O)sc2[nH]c(=S)[nH]c(=O)c12 (racemic) [Compound S79] | Single-dose residual signal at 100 µM, DF2 ([1]; HTRF, 100 µM compound, normalized): 9%; Single-dose residual signal at 100 µM, DF1 [2]: 31%; Single-dose residual signal at 100 µM, DF3 [3]: 30%
2 | 4.66 | 5.04 | 5.72 | 5.03 |  |  | COc1ccc(-c2cc3c(=O)[nH]c(=S)[nH]c3s2)cc1 [Compound 28] | LE (ligand efficiency, DF2) [1]: 0.34 kcal/(mol HAC)
3 | 4.68 | 5.08 | 5.51 | 5.30 |  |  | CCOC(=O)c1ccc(-c2cc3c(=O)[nH]c(=S)[nH]c3s2)cc1 [Compound 29] | LE (ligand efficiency, DF2) [1]: 0.29 kcal/(mol HAC); Selectivity DF2 over DC2 (Kd ratio DC2/DF2) ([4]; FP Kd values): 2–4 fold; Selectivity DF2 over DC1 (Kd ratio DC1/DF2) ([6]; FP Kd values): 2–4 fold
4 |  | 5.30 and 5.31 | 5.72 | 5.12 |  |  | O=C(O)c1ccc(-c2cc3c(=O)[nH]c(=S)[nH]c3s2)cc1 [Compound 30] | 
5 |  |  |  |  | 49 | 28 | O=c1[nH]c(=S)[nH]c2[nH]ccc12 [Compound S63] | 
6 |  |  |  |  | 36 |  | O=c1[nH]c(=S)[nH]c2ccsc12 [Compound S64] | 
7 |  |  |  |  | 68 |  | CCc1cc2c(=O)[nH]c(SC)nc2s1 [Compound S65] | 
8 |  |  |  |  | 25 | 23 | Cc1cc2c(=O)n(C3CC3)c(=S)[nH]c2s1 [Compound S66] | 
9 |  |  |  |  | 40 | 23 | Nn1c(=S)[nH]c2sccc2c1=O [Compound S67] | 
10 |  |  |  |  | 32 | 36 | Nn1c(=S)[nH]c2scc(-c3ccccc3)c2c1=O [Compound S68] | 

From paper PMC12371494, “Discovery of YTHDF2 Ligands by Fragment-Based Design” (ACS Bio & Med Chem Au, 2025)
